The record followed here is article PMC7806935, “Exosite inhibition of ADAMTS-5 by a glycoconjugated arylsulfonamide” (Scientific Reports, 2021).

Assay [1] addresses T1, ADAMTS-4 (Homo sapiens, UniProt O75173).
T1 construct: made in house
T1 sequence (O75173 213-837): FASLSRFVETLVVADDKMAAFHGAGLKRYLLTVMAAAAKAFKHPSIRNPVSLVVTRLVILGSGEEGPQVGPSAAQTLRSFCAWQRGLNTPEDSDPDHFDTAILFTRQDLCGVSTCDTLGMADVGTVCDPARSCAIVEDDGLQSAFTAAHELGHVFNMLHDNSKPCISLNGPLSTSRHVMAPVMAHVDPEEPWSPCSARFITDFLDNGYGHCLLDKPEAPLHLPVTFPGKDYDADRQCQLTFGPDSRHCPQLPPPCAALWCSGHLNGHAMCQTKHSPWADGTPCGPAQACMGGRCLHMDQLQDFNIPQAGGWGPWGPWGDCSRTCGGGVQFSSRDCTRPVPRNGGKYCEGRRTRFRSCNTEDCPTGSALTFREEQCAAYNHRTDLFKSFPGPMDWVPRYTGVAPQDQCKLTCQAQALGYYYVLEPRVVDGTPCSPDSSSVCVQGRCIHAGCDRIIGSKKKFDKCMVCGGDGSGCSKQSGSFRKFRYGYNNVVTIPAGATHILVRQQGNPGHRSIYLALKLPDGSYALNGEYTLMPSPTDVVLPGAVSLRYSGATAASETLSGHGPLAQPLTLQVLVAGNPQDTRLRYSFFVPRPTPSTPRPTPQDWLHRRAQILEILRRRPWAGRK
Put plainly: Versican digestion assay (V1-5GAG, sandwich ELISA), ADAMTS-4. Conditions: protein substrate V1-5GAG, mean ± SEM (n = 3). The format is biochemical. The procedure: (§1) All enzyme assays were conducted in TNC-B buffer (50 mM Tris–HCl, pH 7.5, 150 mM NaCl, 10 mM CaCl2, and 0.02% NaN3) at 37 °C. To avoid the formation of inhibitor aggregates, the detergent Brij-35 (0.05%) was added to the assay buffer. No aggregation was visually observed at concentrations up to 2 mM. The inhibitor stock solutions in DMSO (10 mM) were diluted at different concentrations in assay buffer and incubated with ADAMTS-4 or ADAMTS-5 for 2 h at 37 °C. Percent of inhibition was calculated from control reactions containing only DMSO. IC50 values were determined using the formula: vi/v0 = 1/(1 + [I]/IC50) where vi is the initial velocity of substrate cleavage in the presence of the inhibitor at concentration [I] and v0 is the initial velocity in the presence of an equal concentration (v/v) of DMSO.
(§2) ADAMTS-5 full-length (FL) (final concentration 0.4 nM), ADAMTS-5 MDTCS (0.4 nM) ADAMTS-5 MD (26 nM) or ADAMTS-4 (5.5 nM) were incubated with different concentrations of inhibitors or DMSO for 2 h at 37 °C in TNC-B buffer before addition of V1-5GAG (50 nM). At different time points (0–20 min), sub-samples were removed and reactions were stopped with EDTA. Maxisorp plates (VWR, Lutterworth, UK) were coated with 5 μg/mL anti-DPEEAE neoepitope antibody (Cat n. PA1-1748A, Life Technologies, Paisley, UK) in carbonate buffer pH 9.6 (16 h, 4 °C). This neoepitope antibody specifically recognizes the N-terminal versican fragment versikine, generated when ADAMTS-5 cleaves versican at the Glu441↓442Ala bond. Washing steps were performed in triplicate with 300 μL phosphate buffered-saline (PBS) containing 0.1% Tween-20 between each step. Plates were blocked with 3% bovine serum albumin (BSA)/PBS for 2 h, at RT. The samples from the digestion experiments were diluted in 3% BSA/PBS and added to the plate (100 μL, 2 h, RT). Bound versikine fragments were detected using anti-G1 monoclonal antibody (Cat n. ab171887, Abcam, Cambridge, UK) (3 μg/mL in 0.5% BSA/PBS, 1.5 h, RT), followed by horseradish peroxidase (HRP)-conjugated anti-mouse antibodies (Cat. N. P044701-2, Agilent Technologies LTD, Cheadle, UK) (2.4 μg/mL, 1 h, RT). The assay was developed by addition of o-phenylenediamine dihydrochloride (OPD, Cat n. 34006, Sigma Aldrich, Gillingham, UK) for 10 min and reactions were stopped with 2 M H2SO4. The absorbance was measured at 492 nm using a BioTeK Epoch (BioTek, Swindon, UK) plate reader. For each dilution, the amount of neoepitope generated was derived from a standard curve (0–1.56 nM) of V1-5GAG completely digested with ADAMTS-5. Initial velocities were calculated from the concentration of versikine generated as a function of reaction time and IC50 values were determined.
(§3) For inhibition studies, initial rates of proteolysis (< 20% cleavage) were analyzed between 0 and 20 min. For determination of the specificity constants (kcat/Km), digestion reactions were allowed to occur to completion (0–2 h). Data were analyzed as previously described.
(In an ELISA, binding on a coated surface is turned into a signal by an enzyme label.)

Assay [2] has as its target T2, ADAMTS-5 (Homo sapiens, UniProt Q9UNA0).
T2 construct: made in house
T2 sequence (Q9UNA0 262-930): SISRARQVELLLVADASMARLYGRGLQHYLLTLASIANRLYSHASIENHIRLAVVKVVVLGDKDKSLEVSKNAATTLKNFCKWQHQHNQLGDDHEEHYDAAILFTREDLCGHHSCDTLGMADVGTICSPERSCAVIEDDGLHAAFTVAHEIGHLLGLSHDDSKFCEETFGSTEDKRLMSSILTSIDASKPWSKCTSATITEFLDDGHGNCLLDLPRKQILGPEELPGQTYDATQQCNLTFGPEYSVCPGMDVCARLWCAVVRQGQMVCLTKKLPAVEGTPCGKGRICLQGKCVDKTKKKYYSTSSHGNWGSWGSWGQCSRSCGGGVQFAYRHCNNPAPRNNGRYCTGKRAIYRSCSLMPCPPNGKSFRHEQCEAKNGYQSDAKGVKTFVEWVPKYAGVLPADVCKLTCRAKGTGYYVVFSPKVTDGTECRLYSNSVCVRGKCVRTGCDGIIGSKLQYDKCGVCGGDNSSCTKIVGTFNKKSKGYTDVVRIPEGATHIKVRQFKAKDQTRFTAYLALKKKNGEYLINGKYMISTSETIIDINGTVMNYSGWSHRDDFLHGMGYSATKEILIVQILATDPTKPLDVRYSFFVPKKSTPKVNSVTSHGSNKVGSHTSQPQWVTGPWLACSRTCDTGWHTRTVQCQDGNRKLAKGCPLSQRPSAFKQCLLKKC
Put plainly: Versican digestion assay (V1-5GAG, sandwich ELISA), ADAMTS-5. The assay is classed as biochemical. The conditions noted are these: for IC50: protein substrate V1-5GAG, mean ± SEM (n = 3). The procedure:
as §1, §2, §3

In assay [3] the target is T1, ADAMTS-4. Nature of the assay: QF peptide cleavage assay, ADAMTS-4. The assay is classed as biochemical. Conditions: 12-residue QF peptide substrate; mean ± SEM (n = 3); read-out: IC50 (μM) QF peptide ATS4. As to the method:
as §1
(§4) QF peptide cleavage assays were conducted in 96-well black microtiter plates (Scientific Laboratories Supplies Ltd, Wilford, UK) using a Fluostar Omega microplate reader (BMG Labtech, Aylesbury, UK). The activity of ADAMTS-4 (1 nM) and -5 (5 nM) was monitored for 2 h using the fluorescent peptide substrates fluorescein 5(6)-carbonyl-Ala-Glu-Leu-[…]-Gly-Arg-Pro-Ile-Ser-Ile-Ala-Lys-N,N,N0,N0-tetramethyl-6-carboxyrhodamine-NH2 (FAM-AE ~ LQGRPISIAK-TAMRA, ADAMTS-4) and fluorescein 5(6)-carbonyl-Thr-Glu-Ser-Glu ~ Ser-Arg-Gly-Ala-Ile-Tyr-Lys-Lys-N,N,N0,N0-tetramethyl-6-carboxyrhodamine-NH2 (FAM-TESE ~ SRGAIYKK-TAMRA, ADAMTS-5) (custom-synthesized by Bachem, Bubendorf, Switzerland) with an excitation wavelength of 485 nm and an emission wavelength of 538 nm. Final substrate concentrations were 1 μM and 40 μM for ADAMTS-4 and -5, respectively. Fluorescence was expressed in relative fluorescence units (RFU) and normalized against a blank containing only buffer and substrate. Emission spectra were recorded at several concentrations of each compound to exclude auto-fluorescence and maximal inhibitor concentrations were selected accordingly.

The target in assay [4] is T2, ADAMTS-5. Put plainly: QF peptide cleavage assay, ADAMTS-5. The format is biochemical. Conditions: 12-residue QF peptide substrate; mean ± SEM (n = 3); read-out: IC50 (μM) QF peptide ATS5. As to the method:
as §1, §4

Assay [5] has as its target V1-5GAG, a truncated versican V1 variant (UniProt P13611).
Setting [6] is: read-out: IC50 (μM) V1-5GAG ATS4.
[7] abbreviates: read-out: IC50 (μM) V1-5GAG ATS5.

Bounds are passed on as bounds.

As a reminder, the IC50 is the concentration that inhibits the measured activity by half. On to `CCC(C)N(Cc1cn(C2OC(CO)C(O)C(O)C2NC(C)=O)nn1)S(=O)(=O)c1ccc(-c2ccccc2)cc1` (mixture of isomers) [Compound 3b], for which the IC50 in assay [1] (read-out: IC50 (μM) ADAMTS-4) was 50 ± 16 µM; in assay [2] (read-out: IC50 (μM) ADAMTS-5) it was 120 ± 20 µM. Besides, the “reduction in inhibition of ADAMTS-5 versicanase activity” value in assay [2] (sugar directly linked to the sulfonamide scaffold, compared with n-propyloxy link) is reported as ~ 13 fold.

`CCC(C)N(Cc1cn(CCCOC2OC(CO)C(O)C(O)C2NC(C)=O)nn1)S(=O)(=O)c1ccc(OCc2ccc(F)cc2Cl)cc1` (mixture of isomers) [Compound 4c]: the IC50 in assay [1] (setting [6]) is 90 ± 44 µM; in assay [2] (setting [7]) it was 62 ± 12 µM; in assay [3], greater than 50 µM; in assay [4], 57 ± 10 µM. Further, in assay [2] (benzyloxyphenyl compound compared to 4b), the “reduction in inhibitory properties” value is 6 fold.

For `CCC(C)N(Cc1cn(CCCOC2OC(CO)C(O)C(O)C2NC(C)=O)nn1)S(=O)(=O)c1ccc(OCc2ccccc2)cc1` (mixture of isomers) [Compound 4d], the half-maximal inhibitory concentration (IC50) in assay [1] (setting [6]) was 180 ± 50 µM; in assay [2] (setting [7]), 90 ± 23 µM; in assay [3], greater than 50 µM; in assay [4], greater than 50 µM.

Consider `CC(=O)N[C@@H]1[C@@H](O)[C@H](O)[C@@H](CO)O[C@H]1n1cc(CN([C@@H](C(=O)OCc2ccccc2)C(C)C)S(=O)(=O)c2ccc(-c3ccccc3)cc2)nn1` [Compound 3a], for which the IC50 in assay [1] (read-out: IC50 (μM) ADAMTS-4) and in assay [2] (read-out: IC50 (μM) ADAMTS-5) was greater than 50 µM throughout.

Turning to `CC(=O)N[C@H]1[C@H](OCCCn2cc(CN([C@@H](C(=O)OCc3ccccc3)C(C)C)S(=O)(=O)c3ccc(-c4ccccc4)cc3)nn2)O[C@H](CO)[C@@H](O)[C@@H]1O` [Compound 4a], the IC50 in assay [1] (read-out: IC50 (μM) ADAMTS-4) and in assay [2] (read-out: IC50 (μM) ADAMTS-5) was greater than 50 µM in each case.

Regarding “ADAMTS-5 MDTCS (lacking the C-terminal TS motif) (enzyme)”, the kcat/Km for proteolysis of V1-5GAG (time course at 50 nM substrate, versikine by sandwich ELISA) in assay [5] came to 3.23e+06 M⁻¹ s⁻¹.

Consider ADAMTS-5 MDTCS K532A/K533A (enzyme), for which, in assay [5], the kcat/Km for proteolysis of V1-5GAG (time course at 50 nM substrate, versikine by sandwich ELISA) came to 675000 M⁻¹ s⁻¹.

With ADAMTS-5 MDTCS K532Q/K533Q (enzyme), the kcat/Km for proteolysis of V1-5GAG (time course at 50 nM substrate, versikine by sandwich ELISA) in assay [5] is 401000 M⁻¹ s⁻¹.

As for ADAMTS-5 MDTCS K533A (enzyme), the kcat/Km for proteolysis of V1-5GAG (time course at 50 nM substrate, versikine by sandwich ELISA) in assay [5] amounted to 1.25e+06 M⁻¹ s⁻¹.

As for ADAMTS-5 MDTCS K533H (enzyme), in assay [5], the kcat/Km for proteolysis of V1-5GAG (time course at 50 nM substrate, versikine by sandwich ELISA) is 1.56e+06 M⁻¹ s⁻¹.
